Assay type in all cases: cell-based
Assay [1] relates to human fetal lung fibroblasts (HFL-1). Put plainly: TGF-β-induced fibrotic response (α-SMA expression) in HFL-1. The note with it: HFL1, 2 ng/ml TGF-β1, 48 h, Western blot, read-out: Inhibition of α-SMA expression, EC50 (μM), HFL-1. As for the experimental part:
Nontransformed, human fetal lung fibroblasts (HFL-1) were obtained from ATCC (Manassas, Va.) and maintained in F12K media containing 10% (v/v) charcoal-dextran treated, heat inactivated FBS (Omega Scientific, Tarzana, Calif.). Primary lung fibroblasts isolated from a patient diagnosed with asthma were obtained from Lonza (Allendale, N.J.) and maintained in FGM-2 fibroblast growth medium (Lonza). Cells were seeded at a density to provide 50-60% confluence after an overnight incubation at 37° C. in a humidified atmosphere at 5% CO2. […] Protein content was determined using the Bio-Rad Dc Protein kit (Bio-Rad Laboratories, Hercules, Calif.), and normalized prior to adding an equal volume of 2× Laemmli sample buffer (Sigma). Proteins in the whole cell lysates were resolved via SDS-PAGE gel electrophoresis, and α-SMA was detected via Western blot analysis using a rabbit anti-human α-SMA polyclonal antibody (Abcam, Cambridge, Mass.). α-SMA signal was normalized to the signal of β-actin as detected using mouse anti-human […] antibody (Cell Signaling Technology). DyLight 680 and 800 conjugated secondary antibodies were used and the infrared signals were detected using the Odyssey Imaging System (LI-COR Biotechnology, Lincoln, Nebr.).
(Immunoblotting shows a protein as a band on a membrane.)

Another assay concerns MV-4-11 cells. Put plainly: MV-4-11 proliferation EC50 assay (CellTiter-Glo). The note with it: Homo sapiens, MV4-11, 48 h, read-out: MV-4-11 proliferation EC50, ave. ± S.D. As for the experimental part:
Human biphenotypic B myelomonocytic leukemia MV-4-11 cells (ATCC, Manassas, Va.) were treated with test compounds at 2e5 cells/ml in IMDM medium containing 10% (v/v) FBS (Life Technologies, Grand Island, N.Y.) and 1×Pen/Strep Amphotericin B (Lonza, Allendale, N.J.). Compounds were tested at 25 μM down by ⅓ in a 9 point serial dilution series. Cells were incubated for 48 h at 37° C. in a humidified atmosphere at 5% CO2. MV-4-11 cell proliferation was then indirectly determined via cellular ATP content using the CellTiter-Glo® Luminescent Cell Viability Assay (Promega, Madison, Wis.) as per the manufacturer's instructions. Briefly, experimental plates were equilibrated at room temperature for 30 minutes. An equal volume of CellTiter-Glo® reagent was added to each well and incubated for 15 minutes at room temperature. Luminescent signal was read using the Wallac 1420 Victor^2 multilabel microplate reader (Perkin Elmer, Waltham, Mass.). EC50 values were determined using GraphPad Prism software v5.04.
In general terms: Cellular ATP, detected with luciferase, serves as a proxy for viable cell number.

Assay [2] deals with TLR2 signaling in primary human umbilical vein endothelial cells. Put plainly: Cytokine response to TLR2 agonism (Pam3CysK4) in primary HUVEC (ELISA). The note with it: for IL-8: 5 μM inhibitor. The source says:
It has been reported in the literature that that ERK5 mediates TLR2-dependent inflammatory signaling in several cell types including human umbilical vein endothelial cells (HUVEC). See Wilhelmsen et al., J Biol Chem. 2012; 287:26478-94. Wilhelmsen et al. further reported that MEK1 negatively regulates TLR2 signaling in HUVECs, with pharmacological inhibition of MEK1 augmenting (IL-6, G-CSF, GM-CSF) or not changing (IL-8) pro-inflammatory cytokine release in response to TLR2 stimulation.
In this example, the following commercially available inhibitors were tested:
The results were compared with test compound 61.
Pooled primary human umbilical vein endothelial cells (HUVEC) were obtained from Lonza (Allendale, N.J.) and maintained in either complete EGM-2 defined media (Lonza) or Medium 200 supplemented with Low Serum Growth Supplement (Life Technologies, Grand Island, N.Y.). Cells at low passage (<5) were seeded at 4e5 cells/ml and allowed to adhere overnight at 37° C. in a humidified atmosphere at 5% CO2. Cells were pre-treated with test compounds for 1 h prior to TLR2 or TLR4 stimulation. To test for the effects of TLR2 agonism, the TLR2 agonist peptide Pam3CysK4 (Santa Cruz Biotechnology, Dallas, Tex.) was used at 10 μg/ml. PHC-SKKK (Enzo Life Sciences, Farmingdale, N.Y.) served as the negative control peptide. To test for the effects of TLR4 agonism, LPS from E. coli 0111:B4 (EMD Millipore, Billerica, Mass.) was used at 100 ng/ml. Cells were incubated for 22 hr, after which the supernatant was collected and analyzed for cytokine concentrations by ELISA (Life Technologies). Absorbance at 450 nm was read using the Wallac 1420 Victor^2 multilabel microplate reader (Perkin Elmer, Waltham, Mass.).

In assay [3] the test system is primary human keratinocytes. Put plainly: IL-17A-stimulated cytokine response by primary human keratinocytes. The note with it: Keratinocyte, 200 ng/ml IL-17A, 48 h. As for the experimental part:
Primary human keratinocytes were obtained from Life Technologies (Grand Island, N.Y.) and maintained in growth supplemented Defined Keratinocyte-SFM Medium (Life Technologies). Cells were seeded at 2.5e4 cells/ml onto collagen-coated plates and incubated at 37° C. in a humidified atmosphere at 5% CO2 until the cells reached confluence. Cells were pre-treated with test compounds (10 μM down by ⅕ in a 4-point serial dilution series) for 1 h at 37° C. in a humidified atmosphere at 5% CO2. DMSO at a final concentration of 0.1% served as the non-inhibited control. Cells were then stimulated with 200 ng/ml human recombinant IL-17A (eBioscience, San Diego, Calif.) for 48 h. Supernatant was collected and analyzed for cytokine concentrations using the Human Inflammatory Magnetic 5-Plex Panel from Life Technologies according to the manufacturer's instructions. Magnetic beads were measured on the Bio-Plex MAGPIX multiplex reader instrument using the accompanying xPONENT 4.2 acquisition software (Bio-Rad Laboratories, Hercules, Calif.). Data were analyzed via the Bio-Plex Manager software v6.1 (Bio-Rad Laboratories).

Where two headings read alike, the source gives them in different places.

Regarding `CCOc1cc(C(=O)N2CCC(N3CCN(C)CC3)CC2)ccc1Nc1cc2c(cn1)N(C)C(=O)c1ccccc1N2C` [Compound 61], the results for the EC50 (in assay [1]; in the assay on MV-4-11 cells) were 0.75 to 2.3 µM and 700 ± 50 nM, respectively. Further, the “IL-8” value in assay [2] (+10 μg/ml PHC-SKKK (negative control peptide), 22 hr) is 0 ± 17 pg/mL; in assay [2] (+10 μg/ml Pam3CysK4, 22 hr) it was 133 ± 9 pg/mL. For the same molecule, the “IL-8 response to TLR2 (Pam3CysK4) stimulation, in words” value in assay [2] (summary of Table 22) is “reduced the IL-8 response”.

`CCOc1cc(C(=O)N2CC[C@@H](N(C)C)C2)ccc1Nc1cc2c(cn1)N(C)C(=O)c1ccccc1N2C` [Compound 115]: the EC50 in assay [3] (read-out: Inhibition EC50 (μM), GM-CSF) amounted to 2.18 µM; in assay [3] (read-out: Inhibition EC50 (μM), IL-1β), 0.5 µM; in assay [3] (read-out: Inhibition EC50 (μM), IL-6), 0.35 µM; in assay [3] (read-out: Inhibition EC50 (μM), IL-8), 0.46 µM; in assay [3] (read-out: Inhibition EC50 (μM), TNF-α), 1 µM.

The values above are taken from US20170008888A1 (KYORIN PHARMACEUTICAL CO., LTD., priority 2014, published 2017).
